Test results reported in ChEMBL document CHEMBL3507680, “University of Dundee, Gates Library screen for HepG2 cell viability”.

Assay: Human HepG2 cell viability assay in 384 well format
Type: toxicity, cell-based
Parameters: dose 125 nL, time 70.5 hour; cytotoxicity at 70.5 h: concentration not given beside the values
Settings: HepG2 cells, read-out: Inhibition

| Structure (SMILES) | cytotoxicity at 70.5 h [%] |
| --- | --- |
| CC1CCC(O)(CSc2nnnn2C)CC1 (stereo not drawn) | -3.28 |
| Cc1ccc(CNC(=O)c2ccc(=O)n(C)n2)c(OCC2CC2)c1 | -4.46 |
| CCc1nnc(CS(=O)(=O)c2ccc(C)cc2)n1C | -0.707 |
| CC(CN1CCOC1=O)NC(=O)c1cccc2cc[nH]c12 (stereo not drawn) | -3.45 |
| Clc1snnc1CN(Cc1cccs1)C1CC1 | -5.36 |
| CN(Cc1cccs1)Cc1nnsc1Cl | -4.68 |
| CCC1(CC)CC(=O)N(CC(O)c2cc(F)ccc2F)C1=O (stereo not drawn) | -4.77 |
| Clc1ccc2c(c1)C=C(CNC1CCc3ncnn3C1)CO2 (stereo not drawn) | -7.55 |
| CCc1noc(C(C)N2CCc3c(ncn3C3CC3)C2)n1 (stereo not drawn) | 28.1 |
| CC(c1nc(C2CC2)no1)N1CCc2c(ncn2C)C1 (stereo not drawn) | 0.478 |
| CC(OCC1CC1)C(=O)Nc1cccc(C(=O)Nc2ccncc2)c1 (stereo not drawn) | -10.9 |
| COc1ccc2c(c1)OCC(CNC1CCc3nc(C)nn3C1)=C2 (stereo not drawn) | -8.64 |
| COc1cc(NC(=O)N(C)C(C2CC2)C2CC2)ncn1 | -3.68 |
| CN(C1CCCCC1)S(=O)(=O)N1CCN(Cc2ccco2)CC1 | -7.86 |
| CN1CCC(N(Cc2ccccc2)C(=O)c2ccn3ccnc3c2)CC1 | -2.58 |
| CN(C)c1ccc(NC(=O)c2cccc(N(C)C)c2)nc1 | 15.4 |
| NC1(c2nc(-c3ccccc3)cc(=O)[nH]2)CCCCC1 | -10.8 |
| O=C(CNC(=O)C1CC1)Nc1c(F)cccc1Oc1ccccc1 | -3.31 |
| O=C(CNC(=O)Nc1c(F)cccc1Oc1ccccc1)NC1CC1 | -9.17 |
| COCCN(C(=O)c1ccoc1C)c1ccc(C#N)cc1 | -4.2 |
| O=C(NCCc1nncn1C1CC1)C1SCCc2ccccc21 (stereo not drawn) | -7.17 |
| Cc1nc(C(C)(C)NCc2nnc(C(C)C)o2)sc1C | 1.69 |
| CC(=O)N1CC(C)CN(Cc2ccon2)c2ccccc21 (stereo not drawn) | -4.58 |
| CC(O)CCN(C)S(=O)(=O)Cc1ccc(Cl)c(Cl)c1 (stereo not drawn) | -3.92 |

| Structure (SMILES) | cytotoxicity at 70.5 h [%] |
| --- | --- |
| CC(O)CCN(C)S(=O)(=O)Cc1ccc(Br)cc1 (stereo not drawn) | 23.3 |
| COc1cccc(/C=C/CCN2CCC(C(=O)N3CCCC3)CC2)c1 | 3.93 |
| CC(C)N(C)S(=O)(=O)N1CCN(Cc2ccco2)CC1 | -5.12 |
| Cc1ccccc1CN1CCCN(S(=O)(=O)N(C)C2CCCCC2)CC1 | -7.92 |
| CC(C)c1ccc(OCCC(=O)N(C)CC(=O)N(C)C)cc1 | 16 |
| COc1ccccc1CC(NC(=O)N1CCC[C@@H]1CO)C(C)C (stereo partly drawn) | -6.32 |
| CN(C1CCCCC1)S(=O)(=O)N1CCN(Cc2ccon2)CC1 | -9.52 |
| CCN(CC)CCn1cc(NC(=O)c2ccccc2OC)cn1 | -12.2 |
| CC1COCCN1C(=O)c1ccc(=O)n(Cc2ccccc2)n1 (stereo not drawn) | -4.29 |
| O=C(NCCOc1ccccc1)c1ccc2c(c1)C(=O)NC2=O | 3.38 |
| COC(=O)c1ccc(N2CCN(C(=O)C3CC3)C(C)C2)cc1 (stereo not drawn) | -5.06 |
| CCOCCCOC(=O)c1ccc2c(c1)[nH]c(=O)n2C | 18.6 |
| O=C(NCc1nncn1C1CC1)C1(c2ccccc2)CCOCC1 | -6.33 |
| O=C(NCc1nncn1C1CC1)C1(c2ccc(F)cc2)CCCC1 | 14.3 |
| CC(c1ncc(C(C)(C)C)o1)N1CCN(c2ccncc2)CC1 (stereo not drawn) | -2.28 |
| CCCn1nnnc1CSc1nccn1Cc1ccccn1 | -13.2 |
| CC(c1ncc(C(C)(C)C)o1)N1CCN(Cc2ccncc2)CC1 (stereo not drawn) | -12.1 |
| COc1ccc(NC(=O)NCC(C)N2CCc3ccccc32)cc1 (stereo not drawn) | -11.4 |
| CC(CNC(=O)c1cccc(C#N)c1)N1CCc2ccccc21 (stereo not drawn) | -11.4 |
| Cc1ccc(C(=O)NC2CCCN(c3ncccn3)C2)cn1 (stereo not drawn) | 19.3 |
| CN(CC(=O)Nc1nc2c(s1)CCCCCC2)C(=O)c1ccco1 | -17.3 |
| CNC(=O)NC(=O)C(C)Nc1ccccc1OCCOC (stereo not drawn) | -10.8 |
| NC(=O)CN(CC(=O)NCc1cccc(Cl)c1)C1CCCC1 | -11.2 |
| NC(=O)CN(CC(=O)NCCc1c(F)cccc1F)C1CCCC1 | 23.5 |

| Structure (SMILES) | cytotoxicity at 70.5 h [%] |
| --- | --- |
| Cc1noc(C(C)N2CCN(c3ncnc4ccccc34)CC2)n1 (stereo not drawn) | -13.6 |
| CCN(CC)c1nc2sc(C(=O)NC(C)(C)C(=O)OC)cc2s1 | 0.56 |
| CCNc1cc2c(nn1)CCN(C(=O)C1Cc3ccccc3O1)C2 (stereo not drawn) | -12.9 |
| Cn1cc(C2CCCN2C(=O)CS(=O)(=O)C2CCCC2)cn1 (stereo not drawn) | -8.05 |
| CN(C)c1cc2c(nn1)CCN(C(=O)c1cc3c(s1)CCCC3)C2 | 13.1 |
| Cc1cccc(NCCNc2ccc(C#N)cn2)n1 | -5.87 |
| COc1c(C2CCCN2CCOc2ccccc2C#N)c(C)nn1C (stereo not drawn) | -0.493 |
| COc1cc(OC)cc(N2CCC(NC(=O)c3ccc[nH]3)CC2)c1 | -7.63 |
| Cn1cccc1C(=O)NC1CCN(c2ccc(OC(F)(F)F)cc2)CC1 | 16.6 |
| COCCNc1ccccc1CNC(=O)NCc1ccc(C)s1 | -6.41 |
| CCOCCN1CCN(CCOC)CC1C (stereo not drawn) | -8.63 |
| CCn1cc(C(=O)N2CCCN(c3cccnn3)CC2)c2ccccc21 | 14.2 |
| COc1ccnc(N2CCCN(c3nc(C4CC4)ns3)CC2)n1 | -9.55 |
| CC(Cc1ccsc1)NC(=O)c1cc(N2CCNC2=O)ccc1F (stereo not drawn) | -9.62 |
| CN(C)C1CCCN(C(=O)NCCC(C)(C)C)C1 (stereo not drawn) | 16.4 |
| CCOCCNC1(c2ccc(Cl)cc2)CCOCC1 | 9.63 |
| CCC(CC)NC(=O)c1cncc(Br)c1 | 1.03 |
| CCC(C)NC(=O)c1cncc(Br)c1 (stereo not drawn) | -2.39 |
| CN1N=C(C(=O)N2CCN(c3ncccn3)CC2)CCC1=O | 1.03 |
| CC(NC(=O)CNC(=O)OC(C)(C)C)c1ccc(Cl)s1 (stereo not drawn) | 10.9 |
| COc1ccc2c(c1)CCCN2C(=O)CN1CCOC(CN(C)C)C1 (stereo not drawn) | -4.78 |
| CN(C)C1CCCN(C(=O)NCCNC(=O)C2CCCC2)C1 (stereo not drawn) | -1.02 |
| Cc1cc(CNc2ccc(C(=O)N3CCc4ccccc43)cn2)on1 | -1.24 |
| COCc1ccccc1C(=O)NCC(O)c1ccc(Cl)s1 (stereo not drawn) | 0.31 |

| Structure (SMILES) | cytotoxicity at 70.5 h [%] |
| --- | --- |
| Cc1ccc(C)c(C(=O)NC2CCC(N3C(=O)CCC3=O)CC2)c1 (stereo not drawn) | 3.79 |
| Cc1[nH]ccc1C(=O)NC1CCC(N2C(=O)CCC2=O)CC1 (stereo not drawn) | -2.84 |
| Cc1ccc(F)c(C(=O)NC2CCC(N3C(=O)CCC3=O)CC2)c1 (stereo not drawn) | -0.936 |
| O=C(NC1CCC(N2C(=O)CCC2=O)CC1)c1c[nH]c2ccccc12 (stereo not drawn) | 10.8 |
| Cc1nn(C(C)(C)C)c(=O)n1CC(=O)NCC(F)(F)F | 3.06 |
| COc1cc(C2(C(=O)N3CCN(CC(C)O)CC3)CC2)ccc1C (stereo not drawn) | 10.5 |
| Cc1ccc(S(=O)(=O)CCC(=O)N(C)Cc2cnn(C)c2)cc1 | -73.6 |
| N#Cc1c(Cl)nsc1NCc1ccnc(OCC(F)(F)F)c1 | -44.2 |
| O=C(CNc1ccccc1Cl)Nc1cc(-n2cnnn2)ccc1F | -117 |
| O=C(CCCOc1ccccc1F)NCCCC(=O)Nc1cn[nH]c1 | -3.66 |
| Cc1cc(C)n(C2CN(CC(=O)N(C)Cc3ccco3)C2)n1 | -6.63 |
| Cc1cn2c(n1)CCC(NC(=O)CCOc1cccc(F)c1)C2 (stereo not drawn) | -4.07 |
| CCOCC(=O)Nc1cccc(Oc2ccccn2)c1 | -3.31 |
| COCCN(Cc1cccnc1)S(=O)(=O)c1cccc(F)c1F | 5.02 |
| Cc1ccc(CN(C)C(=O)Cn2nc(-c3ccc(F)cc3)oc2=O)cc1 | -7.04 |
| Cc1ccc(CS(=O)(=O)CC(=O)NCc2ccccc2F)cc1 | -15.5 |
| Cc1ccc(C(O)CNC(=O)c2cccnc2O)cc1 (stereo not drawn) | -12.1 |
| CCOc1ncccc1CNC(=O)CN1CCCCCC1=O | 19.7 |
| CC(C)Cc1noc(CN2CCN(C(=O)c3cccs3)CC2)n1 | -11.2 |
| Cc1cc(=O)n2ncnc2n1CC(O)c1ccccc1 (stereo not drawn) | -17.2 |
| Cc1ccccc1-c1cc(NC(=O)NC2CCC(O)CC2)n(CCO)n1 (stereo not drawn) | -3.45 |
| CC(NC(=O)c1cc(-c2cccc(Cl)c2)no1)C(=O)N(C)C (stereo not drawn) | -17.3 |
| Cc1cc(=O)n2ncnc2n1CC(O)c1cc(Cl)ccc1Cl (stereo not drawn) | -22.2 |
| O=C(NC1CC1)c1cc(NC(=O)N2CCSCC2)ccc1Cl | 15.9 |

| Structure (SMILES) | cytotoxicity at 70.5 h [%] |
| --- | --- |
| Cc1cc(=O)n2ncnc2n1CC(O)c1ccccc1F (stereo not drawn) | -10.7 |
| CC(=O)N1CCN(C(=O)c2cnc(OC(C)C)c(Cl)c2)CC1 | -13.6 |
| O=C(Cc1ccc2c(c1)OCO2)N1CCCN(c2nccs2)CC1 | -8.59 |
| CCc1cc(NCc2cccnc2N2CCCCC2)n2ncnc2n1 | 0.666 |
| CC(=O)N1CCCN(C(=O)c2cnc(OC(C)C)c(Cl)c2)CC1 | -11.9 |
| O=C(Cc1ccc2c(c1)OCO2)N1CCN(c2ccncc2)CC1 | -9.91 |
| CC(C)NC(=O)CCN1CCC(C(=O)c2cc(F)ccc2F)CC1 | -7.21 |
| CC(CN1CCCC1=O)NC(=O)c1cc(-c2cccc(Cl)c2)no1 (stereo not drawn) | -18.5 |
| Cc1ccc(C(=O)N2CCSCC2)cc1NC(=O)NCC1CCC1 | -7.96 |
| Cc1n[nH]c(C2CN(C(=O)c3ccc(Cl)o3)CCO2)n1 (stereo not drawn) | -11.1 |
| Cc1n[nH]c(C2CN(C(=O)c3ccon3)CCO2)n1 (stereo not drawn) | -10.2 |
| CC1CN(C(=O)Nc2ccc(Cl)c(C(=O)NC3CC3)c2)CC(C)(C)O1 (stereo not drawn) | -7.92 |
| N#Cc1cccc(CNc2cc(CO)ccc2Cl)c1 | -15.1 |
| O=C(c1cccnc1O)N(Cc1cccs1)CC1CCCO1 (stereo not drawn) | -11.9 |
| CN(C)C(=O)Cc1nc(CN2CCCC2Cn2cccn2)cs1 (stereo not drawn) | -6.16 |
| CC(C)Cc1noc(CN2CCCN(C(=O)c3ccccc3Cl)CC2)n1 | 4.22 |
| CN(Cc1nnc(C2CC2)n1C)C1CCN(Cc2ccccc2)C1 (stereo not drawn) | 17.5 |
| Cc1cc(N2CCN(C(=O)c3cc(Cl)c[nH]3)CC2)nc(C(C)C)n1 | -7.83 |
| Cc1cc(F)ccc1S(=O)(=O)N(C)CC(N)=O | -6.18 |
| Cc1ccsc1C(=O)Nc1cnn(CC(=O)NC2CCCC2)c1 | 23.1 |
| COC(=O)c1ccc(S(=O)(=O)N(C)CC(N)=O)c(Cl)c1 | -3.22 |
| Cc1cc(C(=O)Nc2cnn(CC(=O)NC3CCCC3)c2)c(C)s1 | -6.94 |
